Patent US11117930B2, “Peptide inhibitors of transcription factor aggregation” (ADRX, INC., priority 2017, dated 2021)
Like-named read-outs stand apart in the source and are kept apart here. Non-standard residues stand in square brackets, D forms with d. Residues, ends and D or L forms follow the SMILES beside them. No end group written: not given here.

How the values were obtained:
Stability in human serum = format: in vitro ADME; conditions: CPP linked peptides, read-out: Stability in Human Serum (t1/2)
Detroit-562 = format: cell-based; conditions: 24 h
Procedure: (§1) To render the inhibitors cell permeable, the peptides are fused to either a nine-residue poly L-Arg tag or a nine-residue poly D-Arg tag, through one of several three-residue linkers, either L-RPI, D-RPI, or D-GGG. Cancer cell lines, e.g. OVCAR-3, and Detroit 562 are treated with the peptide conjugates for 24 hours by the following method. OVCAR3 and Detroit-562 cells are grown in ATCC recommended growth media. The peptides were made in a 4 mM stock. Cells are plated in 96-well flat bottom clear plates at 7000 cells/well. After 24 hours, compounds are serially diluted in one-third [starting at 33 μM] or one-half [starting at 30 μM] dilutions in PrEGM media (Lonza). Growth media was removed from the wells and compound in PrEGM was added to 100 ul final volume. 24 hours post-compound addition cell metabolism was measured by addition of 20 μl MTS solution (Promega, cell-titer 96 aqueous). Absorbance was read at 490 nm following a 2 hour incubation and data was processed in Prism Graphpad to generate EC50 values.

OVCAR3 = format: cell-based; conditions: 24 h
Procedure: as §1

[1] = Protein binding in human serum; format: in vitro ADME; conditions: CPP linked peptides

Compound | half-life (Stability in human serum; cells given in hr) [h] | EC50 (Detroit-562) [µM] | EC50 (OVCAR3) [µM] | fraction unbound [1] | half-life (Stability in human serum) [h]
CC[C@@H](C)[C@@H](NC(=O)[C@H]1CCCN1C(=O)[C@@H](CCCNC(=N)N)NC(=O)[C@@H](CCCNC(=N)N)NC(=O)[C@@H](CCCNC(=N)N)NC(=O)[C@@H](CCCNC(=N)N)NC(=O)[C@@H](CCCNC(=N)N)NC(=O)[C@@H](CCCNC(=N)N)NC(=O)[C@@H](CCCNC(=N)N)NC(=O)[C@@H](CCCNC(=N)N)NC(=O)[C@@H](CCCNC(=N)N)NC(=O)[C@H](N)CCCNC(=N)N)C(=O)N[C@H](CCCNC(=N)N)C(=O)N[C@@H](C(=O)N[C@H](Cc1c[nH]cn1)C(=O)N[C@H](Cc1ccc(O)cc1)C(=O)N[C@H](Cc1ccccc1)C(=O)N[C@H](CCCNC(=N)N)C(=O)N[C@H](CCCNC(=N)N)C(=O)O)[C@H](C)CC [rrrrrrrrrrpirihyfrr] (H-[dR][dR][dR][dR][dR][dR][dR][dR][dR][dR][dP][dI][dR][dI][dH][dY][dF][dR][dR]-OH; N-terminus and C-terminus assumed) | > 24 | 5 | 4 | 0.07 | –
CC[C@@H](C)[C@@H](NC(=O)[C@H]1CCCN1C(=O)[C@@H](CCCNC(=N)N)NC(=O)[C@@H](CCCNC(=N)N)NC(=O)[C@@H](CCCNC(=N)N)NC(=O)[C@@H](CCCNC(=N)N)NC(=O)[C@@H](CCCNC(=N)N)NC(=O)[C@@H](CCCNC(=N)N)NC(=O)[C@@H](CCCNC(=N)N)NC(=O)[C@@H](CCCNC(=N)N)NC(=O)[C@@H](CCCNC(=N)N)NC(=O)[C@H](N)CCCNC(=N)N)C(=O)N[C@H](CCCCN)C(=O)N[C@H](Cc1c[nH]c2ccccc12)C(=O)N[C@H](CCCNC(=N)N)C(=O)N[C@H](Cc1c[nH]c2ccccc12)C(=O)N[C@H](Cc1ccc(O)cc1)C(=O)N[C@H](CCCNC(=N)N)C(=O)N[C@H](CCCNC(=N)N)C(=O)O [rrrrrrrrrrpikwrwyrr] (H-[dR][dR][dR][dR][dR][dR][dR][dR][dR][dR][dP][dI][dK][dW][dR][dW][dY][dR][dR]-OH; N-terminus and C-terminus assumed) | > 24 | 5 | 4 | 0.06 | –
RRRRRRRRRRPILTRITLE [RRRRRRRRRRPILTRITLE, reference compound] | – | 9 | 8 | 0.34 | 5.65
PRRRRRRRRRRPITRIRFYRP | – | 9 | 8 | 0.11 | 1.72
RRRRRRRRRRPIIRIRHYRP | – | 7 | 7 | 0.19 | 2.07
CC[C@@H](C)[C@@H](NC(=O)[C@H]1CCCN1C(=O)[C@@H](CCCNC(=N)N)NC(=O)[C@@H](CCCNC(=N)N)NC(=O)[C@@H](CCCNC(=N)N)NC(=O)[C@@H](CCCNC(=N)N)NC(=O)[C@@H](CCCNC(=N)N)NC(=O)[C@@H](CCCNC(=N)N)NC(=O)[C@@H](CCCNC(=N)N)NC(=O)[C@@H](CCCNC(=N)N)NC(=O)[C@@H](CCCNC(=N)N)NC(=O)[C@H](N)CCCNC(=N)N)C(=O)N[C@H](Cc1ccc(O)cc1)C(=O)N[C@H](CCC(N)=O)C(=O)N[C@H](Cc1c[nH]c2ccccc12)C(=O)N[C@H](Cc1ccc(O)cc1)C(=O)N[C@H](CCCNC(=N)N)C(=O)N[C@H](Cc1c[nH]c2ccccc12)C(=O)N[C@H](CCC(N)=O)C(=O)O [rrrrrrrrrrpiyqwyrwq] (H-[dR][dR][dR][dR][dR][dR][dR][dR][dR][dR][dP][dI][dY][dQ][dW][dY][dR][dW][dQ]-OH) | > 24 | 5 | 6 | 0.01 | –
N=C(N)NCCC[C@@H](N)C(=O)N[C@H](CCCNC(=N)N)C(=O)N[C@H](CCCNC(=N)N)C(=O)N[C@H](CCCNC(=N)N)C(=O)N[C@H](CCCNC(=N)N)C(=O)N[C@H](CCCNC(=N)N)C(=O)N[C@H](CCCNC(=N)N)C(=O)N[C@H](CCCNC(=N)N)C(=O)N[C@H](CCCNC(=N)N)C(=O)NCC(=O)NCC(=O)NCC(=O)N[C@H](Cc1ccc(O)cc1)C(=O)N[C@H](CCC(N)=O)C(=O)N[C@H](Cc1c[nH]c2ccccc12)C(=O)N[C@H](Cc1ccc(O)cc1)C(=O)N[C@H](CCCNC(=N)N)C(=O)N[C@H](Cc1c[nH]c2ccccc12)C(=O)N[C@H](CCC(N)=O)C(=O)O [rrrrrrrrrgggyqwyrwq] (H-[dR][dR][dR][dR][dR][dR][dR][dR][dR]GGG[dY][dQ][dW][dY][dR][dW][dQ]-OH; N-terminus and C-terminus assumed) | > 24 | 8 | 6 | 0.11 | –
CC[C@H](C)[C@H](NC(=O)[C@@H]1CCCN1C(=O)[C@H](CCCNC(=N)N)NC(=O)[C@H](CCCNC(=N)N)NC(=O)[C@H](CCCNC(=N)N)NC(=O)[C@H](CCCNC(=N)N)NC(=O)[C@H](CCCNC(=N)N)NC(=O)[C@H](CCCNC(=N)N)NC(=O)[C@H](CCCNC(=N)N)NC(=O)[C@H](CCCNC(=N)N)NC(=O)[C@H](CCCNC(=N)N)NC(=O)[C@@H](N)CCCNC(=N)N)C(=O)N[C@H](CCCCN)C(=O)N[C@H](Cc1ccccc1)C(=O)N[C@H](CCCNC(=N)N)C(=O)N[C@H](Cc1ccccc1)C(=O)N[C@H](Cc1ccc(O)cc1)C(=O)N[C@H](Cc1c[nH]cn1)C(=O)N[C@H](CCCNC(=N)N)C(=O)O [RRRRRRRRRRPIkfrfyhr] (H-RRRRRRRRRRPI[dK][dF][dR][dF][dY][dH][dR]-OH; N-terminus and C-terminus assumed) | – | 15 | 11 | 0.19 | 4.42
CC[C@@H](C)[C@@H](NC(=O)[C@H]1CCCN1C(=O)[C@@H](CCCNC(=N)N)NC(=O)[C@@H](CCCNC(=N)N)NC(=O)[C@@H](CCCNC(=N)N)NC(=O)[C@@H](CCCNC(=N)N)NC(=O)[C@@H](CCCNC(=N)N)NC(=O)[C@@H](CCCNC(=N)N)NC(=O)[C@@H](CCCNC(=N)N)NC(=O)[C@@H](CCCNC(=N)N)NC(=O)[C@@H](CCCNC(=N)N)NC(=O)[C@H](N)CCCNC(=N)N)C(=O)N[C@H](CCCCN)C(=O)N[C@H](Cc1ccccc1)C(=O)N[C@H](CCCNC(=N)N)C(=O)N[C@H](Cc1ccccc1)C(=O)N[C@H](Cc1ccc(O)cc1)C(=O)N[C@H](Cc1c[nH]cn1)C(=O)N[C@H](CCCNC(=N)N)C(=O)O [rrrrrrrrrrpikfrfyhr] (H-[dR][dR][dR][dR][dR][dR][dR][dR][dR][dR][dP][dI][dK][dF][dR][dF][dY][dH][dR]-OH) | > 24 | 5 | 4 | 0.14 | –
CC[C@@H](C)[C@@H](NC(=O)[C@H]1CCCN1C(=O)[C@@H](CCCNC(=N)N)NC(=O)[C@@H](CCCNC(=N)N)NC(=O)[C@@H](CCCNC(=N)N)NC(=O)[C@@H](CCCNC(=N)N)NC(=O)[C@@H](CCCNC(=N)N)NC(=O)[C@@H](CCCNC(=N)N)NC(=O)[C@@H](CCCNC(=N)N)NC(=O)[C@@H](CCCNC(=N)N)NC(=O)[C@@H](CCCNC(=N)N)NC(=O)[C@H](N)CCCNC(=N)N)C(=O)N[C@H](Cc1c[nH]cn1)C(=O)N[C@H](CC(C)C)C(=O)N[C@H](CCCNC(=N)N)C(=O)N[C@@H](C(=O)N[C@H](Cc1c[nH]c2ccccc12)C(=O)N[C@H](CCCNC(=N)N)C(=O)N[C@H](CC(N)=O)C(=O)O)[C@H](C)CC [rrrrrrrrrrpihlriwrn] (H-[dR][dR][dR][dR][dR][dR][dR][dR][dR][dR][dP][dI][dH][dL][dR][dI][dW][dR][dN]-OH; N-terminus and C-terminus assumed) | > 24 | 4 | 4 | 0.05 | –
PRRRRRRRRRRPIIRIRHYRP | – | 12 | 10 | 0.11 | 1.93
CC[C@H](C)[C@H](NC(=O)[C@@H]1CCCN1C(=O)[C@H](CCCNC(=N)N)NC(=O)[C@H](CCCNC(=N)N)NC(=O)[C@H](CCCNC(=N)N)NC(=O)[C@H](CCCNC(=N)N)NC(=O)[C@H](CCCNC(=N)N)NC(=O)[C@H](CCCNC(=N)N)NC(=O)[C@H](CCCNC(=N)N)NC(=O)[C@H](CCCNC(=N)N)NC(=O)[C@H](CCCNC(=N)N)NC(=O)[C@@H](N)CCCNC(=N)N)C(=O)N[C@H](Cc1ccc(O)cc1)C(=O)N[C@H](CCC(N)=O)C(=O)N[C@H](Cc1c[nH]c2ccccc12)C(=O)N[C@H](Cc1ccc(O)cc1)C(=O)N[C@H](CCCNC(=N)N)C(=O)N[C@H](Cc1c[nH]c2ccccc12)C(=O)N[C@H](CCC(N)=O)C(=O)O [RRRRRRRRRRPIyqwyrwq] (H-RRRRRRRRRRPI[dY][dQ][dW][dY][dR][dW][dQ]-OH; N-terminus and C-terminus assumed) | – | 13 | 10 | 0.02 | 0.833
RRRRRRRRRRPIIRIRHYP [RRRRRRRRRRPIIRIRHYP] | – | 7 | 6 | 0.17 | 4.92
RRRRRRRRRRPIIRIRHYR [RRRRRRRRRRPIIRIRHYR] | – | 6 | 6 | 0.16 | 0.5
PRRRRRRRRRRPIWTIKLWHP | – | 6 | 4 | – | –
